System: moderate-to-severe chronic spontaneous urticaria (CSU)
Assay: Phase 2 CSU study: urticaria activity score over 7 days (UAS7)
Type: in vivo, human
Parameters: key to UAS7 Median / UAS7 Change from baseline Median / UAS7 change from baseline, Q1 / UAS7 change from baseline, Q3 / UAS7 change from baseline, Max / UAS7 Change from baseline LS Mean (SE): UAS7 points; daily UAS score ranges 0–6 points/day, over 7 days
Settings: for UAS7 Post-baseline Mean (SD) / UAS7 % Change difference for rilzabrutinib vs. placebo LS Mean (95% CI) / UAS7 % Change from baseline LS Mean (SE) / UAS7 Change difference for rilzabrutinib vs. placebo LS Mean (95% CI) / UAS7 Change from baseline LS Mean (SE): Omalizumab-Naïve Population; for Change from Baseline in UAS7 at Week 12: LS Mean (SE) / Change from Baseline in UAS7 at Week 12: LS Mean Diff vs. placebo (95% CI) / Change from Baseline in UAS7 at Week 12: Mean (SD): Omalizumab-Naïve
Source text: The study comprises a 12 week, randomized, double-blind, placebo-controlled, multi-center, dose-ranging efficacy and safety phase, followed by a 40 week open label extension (OLE) phase (see FIG. 1). The study consists of three phases and an optional OLE phase. […] Clinically, CSU is characterized by the spontaneous and recurrent appearance of pruritic hives. The proposed primary endpoints were the UAS7 at Week 12 in EU and EU reference countries and the ISS7 in the US. Regardless of where a participant was from, all assessments were the same. The UAS7 score is a composite score containing both the HSS7 and the ISS7. This allowed a global assessment of the two key components of urticaria: hives and itch. […] The UAS is a validated PRO measure. […] The daily UAS scores range from 0 to 6 point/day. […] Patients were to complete the UAS using the e-diary. […] The following secondary endpoints were to be analyzed using the same approach as for the primary endpoint: • Change from baseline in UAS7 at Week 4 • Change from baseline in UAS7 at Week 12 (for US and US reference countries) • Change from baseline in ISS7 at Week 12 (except US and US reference countries) • Change from baseline in HSS7 at Week 12 The following responder secondary endpoints were to be analyzed using the Cochran-Mantel-Haenszel test adjusted by region: • Proportion of participants with UAS7<6 at Week 12 • Proportion of participants with UAS7=0 at Week 12 Participants who received selected prohibited medications and/or rescue medications were to be considered as non-responders for time points after the medication usage. For other participants, all available data including those collected during the off-treatment period were to be used to determine the responder/non-responder status. Missing data were to be considered as non-responders.

[1] = Age group (years) <44 (Median), 400 mg BID
[2] = Age group (years) <44 (Median), 400 mg QPM
[3] = Age group (years) <44 (Median), 400 mg TID
[4] = Age group (years) <65, 400 mg BID
[5] = Age group (years) <65, 400 mg QPM
[6] = Age group (years) <65, 400 mg TID
[7] = Age group (years) ≥44 (Median), 400 mg BID

With `CC(C)(C=C(C#N)C(=O)N1CCC[C@@H](n2nc(-c3ccc(Oc4ccccc4)cc3F)c3c(N)ncnc32)C1)N1CCN(C2COC2)CC1` [rilzabrutinib, (R)-2-[3-[4-amino-3-(2-fluoro-4-phenoxy-phenyl)pyrazolo[3,4-d]pyrimidin-1-yl]piperidine-1-carbonyl]-4-methyl-4-[4-(oxetan-3-yl)piperazin-1-yl]pent-2-enenitrile] as the compound, how does the “UAS7 Post-baseline Mean (SD)” value (400 mg QPM, Week 3) read?
The value was 22.01 (9.00).

What about the “UAS7 % Change difference for rilzabrutinib vs. placebo LS Mean (95% CI)” value (“UAS7 % Change difference … (95% CI)” below) (400 mg QPM, Week 4) of the same compound?
The value was −8.22%.

And the “UAS7 % Change from baseline LS Mean (SE)” value (400 mg QPM, Week 4)?
Its value is −28.63 (5.66) %.

What about the “UAS7 Change difference for rilzabrutinib vs. placebo LS Mean (95% CI)” value (“UAS7 Change difference … (95% CI)” below) (400 mg QPM, Week 4) of the same compound?
The value was −2.08.

What about the “UAS7 Change from baseline LS Mean (SE)” value (400 mg QPM, Week 4) of the same compound?
The value was −9.14 (1.66).

And the “UAS7 Post-baseline Mean (SD)” value (400 mg QPM, Week 4)?
The value was 21.92 (8.82).

What about the “UAS7 Post-baseline Mean (SD)” value (400 mg QPM, Week 5) of the same compound?
The value was 20.63 (9.18).

And the “UAS7 Post-baseline Mean (SD)” value (400 mg QPM, Week 6)?
Its value is 20.21 (10.42).

And the “UAS7 Post-baseline Mean (SD)” value (400 mg QPM, Week 7)?
Its value is 21.11 (10.03).

And the “UAS7 Post-baseline Mean (SD)” value (400 mg QPM, Week 9)?
The value was 20.25 (10.25).

And the “UAS7 Post-baseline Mean (SD)” value (400 mg QPM, Week 10)?
Its value is 20.27 (10.69).

What about the “UAS7 Post-baseline Mean (SD)” value (400 mg QPM, Week 11) of the same compound?
The value was 21.17 (11.16).

And the “UAS7 % Change difference … (95% CI)” value (400 mg QPM, Week 12)?
The value was −4.51%.

What about the “UAS7 % Change from baseline LS Mean (SE)” value (400 mg QPM, Week 12) of the same compound?
Its value is −34.79 (6.80) %.

And the “UAS7 Change difference … (95% CI)” value (400 mg QPM, Week 12)?
Its value is 0.40.

And the “UAS7 Change from baseline LS Mean (SE)” value (400 mg QPM, Week 12)?
The value was −9.74 (2.00).

What about the “UAS7 % Change difference … (95% CI)” value (400 mg TID, Week 1) of the same compound?
Its value is −27.13%.

And the “UAS7 % Change from baseline LS Mean (SE)” value (400 mg TID, Week 1)?
Its value is −36.60 (5.66) %.

What about the “UAS7 Change difference … (95% CI)” value (400 mg TID, Week 1) of the same compound?
The value was −7.89.

And the “UAS7 Change from baseline LS Mean (SE)” value (400 mg TID, Week 1)?
The value was −11.44 (1.56).

What about the “UAS7 Post-baseline Mean (SD)” value (400 mg TID, Week 1) of the same compound?
Its value is 17.77 (10.26).

What about the “UAS7 % Change difference … (95% CI)” value (400 mg TID, Week 2) of the same compound?
The value was −27.13%.

And the “UAS7 % Change from baseline LS Mean (SE)” value (400 mg TID, Week 2)?
The value was −44.90 (5.51) %.

What about the “UAS7 Change difference … (95% CI)” value (400 mg TID, Week 2) of the same compound?
Its value is −7.73.

What about the “UAS7 Change from baseline LS Mean (SE)” value (400 mg TID, Week 2) of the same compound?
The value was −13.63 (1.56).

What about the “UAS7 Post-baseline Mean (SD)” value (400 mg TID, Week 2) of the same compound?
Its value is 15.65 (10.66).

What about the “UAS7 % Change difference … (95% CI)” value (400 mg TID, Week 3) of the same compound?
The value was −27.19%.

And the “UAS7 % Change from baseline LS Mean (SE)” value (400 mg TID, Week 3)?
Its value is −47.14 (5.69) %.

What about the “UAS7 Change difference … (95% CI)” value (400 mg TID, Week 3) of the same compound?
The value was −6.90.

What about the “UAS7 Change from baseline LS Mean (SE)” value (400 mg TID, Week 3) of the same compound?
The value was −13.83 (1.65).

What about the “UAS7 Post-baseline Mean (SD)” value (400 mg TID, Week 3) of the same compound?
Its value is 15.37 (9.87).

What about the “UAS7 % Change difference … (95% CI)” value (400 mg TID, Week 4) of the same compound?
Its value is −26.33%.

What about the “UAS7 % Change from baseline LS Mean (SE)” value (400 mg TID, Week 4) of the same compound?
The value was −46.75 (5.92) %.

What about the “UAS7 Change difference … (95% CI)” value (400 mg TID, Week 4) of the same compound?
The value was −6.60.

And the “UAS7 Change from baseline LS Mean (SE)” value (400 mg TID, Week 4)?
The value was −13.66 (1.72).

What about the “UAS7 Post-baseline Mean (SD)” value (400 mg TID, Week 4) of the same compound?
The value was 14.65 (9.61).

And the “UAS7 Change difference … (95% CI)” value (400 mg TID, Week 5)?
The value was −5.10.

And the “UAS7 Change from baseline LS Mean (SE)” value (400 mg TID, Week 5)?
The value was −15.54 (1.72).

What about the “UAS7 Post-baseline Mean (SD)” value (400 mg TID, Week 5) of the same compound?
Its value is 13.41 (10.60).

What about the “UAS7 Post-baseline Mean (SD)” value (400 mg TID, Week 6) of the same compound?
The value was 14.10 (11.23).

What about the “UAS7 Post-baseline Mean (SD)” value (400 mg TID, Week 7) of the same compound?
Its value is 13.54 (9.34).

What about the “UAS7 Post-baseline Mean (SD)” value (400 mg TID, Week 8) of the same compound?
Its value is 13.36 (9.81).

And the “UAS7 Post-baseline Mean (SD)” value (400 mg TID, Week 9)?
Its value is 12.57 (9.72).

What about the “UAS7 Post-baseline Mean (SD)” value (400 mg TID, Week 10) of the same compound?
The value was 12.61 (9.89).

And the “UAS7 Post-baseline Mean (SD)” value (400 mg TID, Week 12)?
Its value is 11.00 (9.90).

And the “Change from Baseline in UAS7 at Week 12: LS Mean (SE)” value (“Change from Baseline in UAS7 … (SE)” for short) [1]?
The value was −13.80 (2.95).

What about the “Change from Baseline in UAS7 at Week 12: LS Mean Diff vs. placebo (95% CI)” value (“Change from Baseline in UAS7 … (95% CI)” for short) [1] of the same compound?
Its value is −5.42 (−13.05, 2.21).

What about the “Change from Baseline in UAS7 at Week 12: Mean (SD)” value (from here on “Change from Baseline in UAS7 … (SD)”) [1] of the same compound?
Its value is −11.98 (9.69).

What about the “Change from Baseline in UAS7 … (SE)” value [2] of the same compound?
Its value is −9.54 (2.74).

What about the “Change from Baseline in UAS7 … (SD)” value [2] of the same compound?
Its value is −10.45 (10.67).

What about the “Change from Baseline in UAS7 … (SE)” value [3] of the same compound?
Its value is −16.19 (3.68).

And the “Change from Baseline in UAS7 … (95% CI)” value [3]?
The value was −7.80 (−16.46, 0.86).

And the “Change from Baseline in UAS7 … (SD)” value [3]?
Its value is −18.69 (10.55).

And the “Change from Baseline in UAS7 … (SE)” value [4]?
Its value is −13.99 (2.04).

And the “Change from Baseline in UAS7 … (95% CI)” value [4]?
The value was −3.58 (−9.19, 2.03).

What about the “Change from Baseline in UAS7 … (SD)” value [4] of the same compound?
The value was −13.91 (11.95).

What about the “Change from Baseline in UAS7 … (SE)” value [5] of the same compound?
Its value is −9.12 (1.96).

And the “Change from Baseline in UAS7 … (95% CI)” value [5]?
Its value is 1.30 (−4.27, 6.86).

What about the “Change from Baseline in UAS7 … (SD)” value [5] of the same compound?
Its value is −10.37 (9.46).

What about the “Change from Baseline in UAS7 … (SE)” value [6] of the same compound?
Its value is −16.30 (2.11).

What about the “Change from Baseline in UAS7 … (95% CI)” value [6] of the same compound?
Its value is −5.88 (−11.58, −0.19).

What about the “Change from Baseline in UAS7 … (SD)” value [6] of the same compound?
Its value is −18.19 (11.00).

And the “Change from Baseline in UAS7 … (SE)” value [7]?
Its value is −15.12 (2.72).

What about the “Change from Baseline in UAS7 … (95% CI)” value [7] of the same compound?
The value was −3.56 (−11.91, 4.80).

And the “Change from Baseline in UAS7 … (SD)” value [7]?
Its value is −16.63 (13.80).

And the “Change from Baseline in UAS7 … (SE)” value (Age group (years) ≥44 (Median), 400 mg QPM)?
The value was −8.84 (2.81).

From patent US20260256792A1, “TREATMENT OF CHRONIC SPONTANEOUS URTICARIA BY ADMINISTERING (R)-2-[3-[4-AMINO-3-(2-FLUORO-4-PHENOXY-PHENYL)PYRAZOLO[3,4-D]PYRIMIDIN-1-YL]PIPERIDINE-1-CARBONYL]-4-METHYL-4-[4-(OXETAN-3-YL)PIPERAZIN-1-YL]PENT-2-ENENITRILE” (priority 2023, published 2026)
